Data: PubChem BioAssay AID2423 (Broad Institute, 2010)
Records with an inconclusive call do not appear. Active and inactive are the calls of the source. No rule for the calls is given here.

What follows are compounds tested on C. albicans CaCi-8 + fluconazole, Alamar Blue growth, 48 h (assay: resistant C. albicans growth inhibition with fluconazole, dose response, CaCi-8 strain, Alamar Blue fluorescence (AID 2423)).

| Structure (SMILES) | EC50 |
| --- | --- |
| Oc1c(C(Nc2cccc(C(F)(F)F)c2)c2cccnc2)ccc2cccnc12 (configuration not stated) | 2070 nM |
| Cc1nn(-c2ccccc2)c(C)c1C(=O)Nc1nnc(-c2ccco2)o1 | 421 nM |
| CC(=O)N(Cc1ccc(F)cc1)C1=C(NCCc2ccccc2)C(=O)c2ccccc2C1=O | 330 nM |
| CN1CCN(C(c2ccc(C(F)(F)F)cc2)c2cc(Cl)c3cccnc3c2O)CC1 (configuration not stated) | 787 nM |
| O=C(N/N=C/c1ccccn1)c1cc(-c2ccc(Cl)cc2)nc2ccccc12 | 4330 nM |
| CC[n+]1cc(C)ccc1/C=C/c1ccc(N(C)C)cc1 | 1410 nM |
| O=C(NCCNC(=O)C(c1ccccc1)c1ccccc1)c1ccco1 | > 15000 nM (inactive) |
| CCOC(=O)c1cnc(-n2cc(C)cn2)nc1Nc1ccccc1OCC | 12500 nM |
| Cc1scc(C(=O)N/N=C/c2ccc([N+](=O)[O-])o2)c1C | 884 nM |
| CCCOc1ccc(C(=O)NNC(=S)NC(=O)CC)cc1 | 937 nM |
| Cc1ccccc1C(=O)Nc1nnc(-c2ccc(F)cc2)o1 | 624 nM |
| Cc1ccc2occ(/C=N/NC(=O)c3ccccc3O)c(=O)c2c1 | 15100 nM |
| Cc1nc(NS(=O)(=O)c2ccc(Br)cc2)c2c3c(sc2n1)CCC3 | > 16000 nM (inactive) |
| CCn1c(SCC(=O)c2ccc(O)c(O)c2)nnc1-c1ccccc1OC | > 16000 nM (inactive) |
| Cc1cc([N+](=O)[O-])c2ccccc2[n+]1[O-] | 195 nM |
| O=C1/C(=C\c2cccnc2)SC(=S)N1C1CCS(=O)(=O)C1 (configuration not stated) | > 16000 nM (inactive) |
| CCC(=O)NC(c1ccc(C)cc1)c1cc([N+](=O)[O-])c2cccnc2c1O (configuration not stated) | 513 nM |
| CN(C)C(=O)c1cn(-c2ccccc2)nc1-c1cccs1 | > 16000 nM (inactive) |
| O=C(NNC1=C(C(=O)C(F)(F)F)CCC1)c1ccc(Br)cc1 | 790 nM |
| CCOc1ccc2nc(NC(=S)N(C)C)sc2c1 | 1220 nM |
| Nc1nonc1-n1nnc(C(=O)N/N=C/c2cc(Br)ccc2O)c1CNc1ccccc1 | 634 nM |
| COc1ccc(OC)c(/C=C2\SC(=S)N(NS(=O)(=O)c3ccc(C)cc3)C2=O)c1 | 1130 nM |
| CC(=O)NC(c1cccs1)c1cc([N+](=O)[O-])c2cccnc2c1O (configuration not stated) | 1080 nM |

| Structure (SMILES) | EC50 |
| --- | --- |
| O=C1CS/C(=N\C(=O)N2c3ccccc3Sc3ccccc32)N1 | 1090 nM |
| Cc1ccc(NC(=O)CSc2nnc([C@@H](N)Cc3c[nH]c4ccccc34)o2)c(C)c1 | > 15000 nM (inactive) |
| O=C(Cc1cnn(-c2ccccc2)c1)c1ccc(O)c(O)c1O | 8400 nM |
| O=C(/C=C/c1cc(Br)ccc1O)c1ccco1 | 458 nM |
| Cc1ccc(-n2c(C)cc(/C([O-])=C(/C(=S)Nc3ccc(F)c(Cl)c3)[n+]3ccccc3)c2C)cc1 | > 16000 nM (inactive) |
| COc1cc([N+](=O)[O-])cc(/C=N/NC(=O)c2cc(-c3ccccc3)nc3ccccc23)c1O | 1540 nM |
| CN1CCN(C(c2ccc(Br)cc2)c2cc(Cl)c3cccnc3c2O)CC1 (configuration not stated) | 624 nM |
| CC(=O)Nc1ccc(NC(=O)CCCN2C(=O)c3ccccc3C2=O)cc1 | > 15000 nM (inactive) |
| C/C(=N/NC(=O)c1cc(O)c(O)c(O)c1)c1ccc([N+](=O)[O-])cc1 | 4810 nM |
| N/C(=N\OC(=O)N1c2ccccc2Sc2ccccc21)c1ccccc1 | 193 nM |
| Cc1csc2ncnc(NCCc3ccccn3)c12 | 6030 nM |
| COc1ccc(OC)c(Nc2nc(-c3ccc(O)c(O)c3)cs2)c1 | 10800 nM |
| CCCCOc1ccc(C(=O)NNC(=S)NC(=O)CC)cc1 | 858 nM |
| O=[N+]([O-])c1ccc(O)c2ncccc12 | 681 nM |
| N/C(Cc1ccc(Cl)cc1Cl)=N\OC(=O)c1ccccc1 | 833 nM |
| COc1ccc(C(=O)NC(=S)NNC(=O)c2ccccc2C)cc1 | 1990 nM |
| Cc1nnc(NC(=O)CSc2ncnc3c2cnn3-c2ccccc2C)s1 | 446 nM |
| O=S(=O)(c1ccc(Cl)s1)N1CCCc2cccc(O)c21 | > 15000 nM (inactive) |
| CCCC(=O)NC(c1ccccc1Cl)c1ccc2cccnc2c1O (configuration not stated) | 516 nM |
| COc1cccc(COc2cc3ccccc3nc2C)c1 | 1060 nM |
| COc1ccc(C(=O)NNC(=S)NC(=O)c2ccc(Cl)cc2)cc1 | 928 nM |
| CC(=O)NC1CCCN(O)C(=O)/C=C(\C)CCOC(=O)C(NC(C)=O)CCCN(O)C(=O)/C=C(\C)CCOC(=O)C(NC(C)=O)CCCN(O)C(=O)/C=C(\C)CCOC1=O (configuration not stated) | 783 nM |
| Cc1ccccc1-c1ccnc2[nH]n(-c3ccccc3)c(=O)c12 | 14500 nM |

| Structure (SMILES) | EC50 |
| --- | --- |
| CSc1cnc2c(N)nc(N(C)C)nc2n1 | 12400 nM |
| Oc1ccccc1C(Nc1nccs1)c1ccc2cccnc2c1O (configuration not stated) | 2730 nM |
| Cc1ccc(-c2nnn(CC(=O)N(Cc3ccco3)C(C(=O)NC(C)(C)C)c3ccncc3)n2)o1 (configuration not stated) | > 15000 nM (inactive) |
| CN(C)S(=O)(=O)Oc1cccc(C(=O)Nc2cccc(Cl)c2)c1 | 1350 nM |
| Cn1c(=O)n(CC#N)c2ccccc21 | 14800 nM |
| O=C(Nc1ccncc1)c1ccc(Br)cc1 | > 15000 nM (inactive) |
| O=c1[nH]c(-c2ccccn2)nc(C(F)(F)F)c1Br | 495 nM |
| Cc1cc(C(=O)Nc2ccccc2C(=O)O)ccc1NC(=O)COc1cccc([N+](=O)[O-])c1 | 5270 nM |
| CC1=CC2=C(OC1N(C)C)c1cccc3cccc(c13)C2=O (configuration not stated) | 9240 nM |
| CC(C)c1ccc2c(c1)C(N1CCNCC1)Cc1ccc(F)cc1S2 (configuration not stated) | 7170 nM |
| COCCN(C(=O)CSc1nnc(-c2cccc(C)c2)n1C)c1c(N)n(Cc2ccccc2)c(=O)[nH]c1=O | > 16000 nM (inactive) |
| CCCCCCSc1nnc2[nH]c(=O)cc(N)n12 | 1150 nM |
| Cc1cc(Br)ccc1OCC(=O)NNC(=O)C(=O)Nc1ccccc1 | 718 nM |
| Cc1ccc(C(=O)c2coc3cc([N+](=O)[O-])c(O)c([N+](=O)[O-])c23)cc1 | 1230 nM |
| COc1ccc(NS(=O)(=O)c2ccc3ccccc3c2)c2ncccc12 | 3790 nM |
| CCOC(=O)N1CCN(Cc2ccc(O)c3ncccc23)CC1 | 12500 nM |
| CN1/C(=C/C(=O)c2cccs2)Sc2ccccc21 | 841 nM |
| COc1ccc(-n2nc(C(=O)NCC(=O)NCCC3=CCCCC3)c3ccccc3c2=O)c(OC)c1 | 232 nM |
| COc1cc(C(=O)Oc2c(CN3CCOCC3)cc(Cl)c3cccnc23)cc(OC)c1OC | 2740 nM |
| COc1ccccc1N=Nc1ccc(O)c2ncccc12 | 871 nM |
| Oc1c(C(c2ccccn2)N2CCOCC2)ccc2cccnc12 (configuration not stated) | 4860 nM |
| CC1CCN(C(=O)Cn2c3ccccc3c3nc4n(c(=O)c32)CCS4)CC1 | > 16000 nM (inactive) |
| O=C(Nc1nnc(SCc2ccc(F)cc2)s1)c1ccccn1 | 487 nM |

| Structure (SMILES) | EC50 |
| --- | --- |
| CCn1nc(/C=C/c2ccccc2)nc2c(=O)n(C)c(=O)nc1-2 | 323 nM |
| O=C(Oc1c(Cl)cc(Cl)c2cccnc12)c1cccs1 | 443 nM |
| Cc1ccc(C2C3CSCC=C3C(C#N)=C(N)C2(C#N)C#N)cc1 (configuration not stated) | 16300 nM |
| COc1ccc(-[n+]2c(-c3ccccc3)cc(-c3ccc(C)cc3)cc2-c2ccccc2)cc1 | > 15000 nM (inactive) |
| C=C(C)CSc1[nH]c(=O)cc(C)c1C#N | 1250 nM |
| O=C(N/N=C/c1sc(N2CCOCC2)nc1-c1ccccc1)c1cccc(S(=O)(=O)N2CCOCC2)c1 | 1150 nM |
| O=C(NNC1=C(C(=O)C(F)(F)F)CCC1)c1cccc(Cl)c1 | 1960 nM |
| O=C(O)c1cccc(CSc2nc(-c3ccccc3)cc(C(F)(F)F)n2)c1 | 6820 nM |
| COC(=O)[C@@H]1CCCN1Cc1nc(Cc2ccccc2F)no1 | > 16000 nM (inactive) |
| C=C(C)COc1ccc(-c2n[nH]c(C)c2-c2ccccc2)c(O)c1 | 4290 nM |
| O=[N+]([O-])c1ccc(N2CCN(Cc3ccc([N+](=O)[O-])o3)CC2)cc1 | 1650 nM |
| CCCCNC(=O)/C(=C\c1ccc([N+](=O)[O-])o1)NC(=O)c1ccccc1 | > 15000 nM (inactive) |
| O=c1c2cc(Br)ccc2nc(-c2ccccc2)n1O | 2080 nM |
| Oc1c(CN2CCN(c3ccccc3)CC2)cc(Br)c2cccnc12 | 1230 nM |
| O=C(NCc1ccccc1)c1sc(=S)n2c1[nH]c(=O)c1ccccc12 | 948 nM |
| O=C(NNC(=O)c1ccccc1O)c1ccc(-c2ccc([N+](=O)[O-])cc2)o1 | > 15000 nM (inactive) |
| CC(C)CC(=O)NC(=S)NNC(=O)c1ccc(NC(=O)C2CCCCC2)cc1 | 1210 nM |
| COc1ccc(-n2nc(C(=O)NCC(=O)N3CCN(c4ccccc4)CC3)c3ccccc3c2=O)c(OC)c1 | 698 nM |
| CCOC(=O)c1ccc(NC(=O)Nc2ccn(C)n2)cc1 | 1510 nM |
| O=C(ONC1=NCCCCC1)c1cccc([N+](=O)[O-])c1 | 969 nM |
| COc1cccc(C(=O)Oc2c(CN3CCOCC3)cc(Cl)c3cccnc23)c1 | 1950 nM |
| CC(CC(=O)Nc1ncc([N+](=O)[O-])s1)c1ccccc1 (configuration not stated) | 322 nM |
| O=C(Oc1ccc(Cl)c2cccnc12)c1cccc([N+](=O)[O-])c1 | 12300 nM |

| Structure (SMILES) | EC50 |
| --- | --- |
| CCCCOc1cccc(C2C(C(=O)c3ccc(C)o3)=C(O)C(=O)N2Cc2ccco2)c1 (configuration not stated) | 394 nM |
| O=C(Cc1ccc([N+](=O)[O-])cc1)NNC(=O)c1ccc2c(c1)OCO2 | > 15000 nM (inactive) |
| O=c1[nH]n2c(C(F)(F)F)cc(C3CC3)nc2c1N=Nc1ccccc1 | 4250 nM |
| COc1cccc(N=Nc2ccc(O)c3ncccc23)c1 | 505 nM |
| Nc1nsc2ccccc12 | > 15000 nM (inactive) |
| NNC(=O)c1cc(-c2cccs2)nc2ccccc12 | > 15000 nM (inactive) |
| O=c1c2ccccc2nc(-c2ccc([N+](=O)[O-])cc2)n1O | 6520 nM |
| S=c1[nH]nc(-c2ccccc2)n1/N=C/c1cccs1 | 6130 nM |
| FC(F)(F)c1ccccc1NC(=S)NN=C1CCCCCC1 | 4950 nM |
| CCCCCCCCCCCCCCCC[N+](C)(C)C | > 15000 nM (inactive) |
| CCc1ccc(OCC(=O)NNC(=S)NC(=O)C2CC2)c(Br)c1 | 1190 nM |
| O=C(Cc1cccs1)Nc1cccc(-c2nc3ccccc3[nH]2)c1 | 798 nM |
| CCOc1ccccc1C(=O)N/N=C/c1ccoc1 | 2180 nM |
| Cc1ccc(/C=C2\SC(=S)N(/N=C/c3cc([N+](=O)[O-])ccc3O)C2=O)o1 | 3330 nM |
| FC(F)(F)COc1nc(OCC(F)(F)F)nc(N2CCN(c3ccccc3)CC2)n1 | > 16000 nM (inactive) |
| Oc1c(Cl)cc(Cl)c(Cl)c1Cc1c(O)c(Cl)cc(Cl)c1Cl | 1720 nM |
| O=Nc1c(O)n(Cc2ccc(Cl)c(Cl)c2)c2ccccc12 | 5900 nM |
| C=CCNC(=S)N/N=C/c1ccc(-c2ccc(OC)cc2)o1 | 4000 nM |
| CCNC(=S)NNC(=O)c1cc(-c2ccccc2C)nc2ccccc12 | 1410 nM |
| COc1cc(SC)ccc1C(=O)OCC(=O)NC1CC1 | > 15000 nM (inactive) |
